Patent US20250042912A1, “NOVEL NON-FLUORINATED QUINOLONE COMPOUND AND USE THEREOF” (priority 2021, published 2025)
Where a name gives a salt, the structure may show the parent alone.

Experiment: Pharmacokinetic evaluation in mice after intravenous and oral administration
Type: in vivo
Details: mouse, plasma, male CD-1 mice
Procedure: CD-1 mice (male, Beijing Vital River Laboratory Animal Technology Co., Ltd.)
The pharmacokinetic characteristics of rodents after intravenous and oral administration of the compounds were tested using a standard protocol. In the experiment, the candidate compounds were prepared into clear solutions and administered to mice by single intravenous injection and oral administration. The intravenous and oral vehicles were mixed vehicles of 10% DMSO+90% (20% SBE-β-CD). This project included four male CD-1 mice, two of which were administered intravenously at a dosage of 1 mg/kg, and plasma samples were collected at 0.083 hours, 0.25 hours, 0.5 hours, 1 hour, 2 hours, 4 hours, 8 hours, and 24 hours after administration; the other two mice were orally administered by gavage at a dosage of 2 mg/kg, and plasma samples were collected at 0.25 hours, 0.5 hours, 1 hour, 2 hours, 4 hours, 8 hours, and 24 hours after administration. Blood samples were placed on ice after collection, and plasma was separated by centrifugation within 1 hour (centrifugation conditions: 6000 g, 3 minutes, 2-8° C.). Plasma samples were stored in a refrigerator at −80° C. before analysis. Plasma concentrations were quantitatively analyzed using LC-MS/MS analysis method, and pharmacokinetic parameters were calculated such as peak concentration (Cmax), clearance rate (CL), half-life (T1/2), […] (Vdss), area under concentration-time curve (AUC0-last), and bioavailability (F), etc.

bioavailability (IV 1 mg/kg, oral gavage 2 mg/kg, read-out: Bioavailability F): 132% | Cmax (IV 1 mg/kg, oral gavage 2 mg/kg, route of Cmax not given, read-out: Peak concentration Cmax): 683 nM | clearance (IV 1 mg/kg, read-out: Clearance rate CL): 132 mL/min/kg | half-life (IV 1 mg/kg, read-out: Half-life T1/2 (IV) (converted)): 20.5 min | Vd (IV 1 mg/kg, read-out: Tissue distribution Vdss): 3.04 L/kg | AUC(0-t) (oral gavage 2 mg/kg, read-out: Area under concentration-time curve AUC0-last PO): 0.924 µM·h
Compound: Nc1cc2c(cn1)-c1ccc3c(=O)c(C(=O)O)cn(C4CC4)c3c1COC2 [Hydrochloride of Compound 7]
